From US20150224202A1, “FORMULATIONS AND USES FOR MICROPARTICLE DELIVERY OF ZINC PROTOPORPHYRINS” (priority 2014, published 2015)

Assays:
3-day-old mouse pups = test: Effect of light exposure on metalloporphyrin-treated newborn mice (chemical toxicity and phototoxicity); conditions: for chemical toxicity / phototoxicity, summary: 3.75 to 30.0 μmol/kg BW IP; for LD50 (50% lethal dose), exposed to light: fluorescent light (2 cool white, 1 blue tube) 3 hours
Description: FIG. 2 includes three panels ((A), (B), and (C)), showing the experimental setup for phototoxicity studies. 3-day-old pups (magnified in panel (A)) were given vehicle or Mp IP at doses ranging from 3.75 to 30 μmol/kg body weight (BW) and then exposed for 3 hours to fluorescent light consisting of 2 cool white and 1 blue tubes (as shown in panel (B)) emitting an irradiance of 35.0±1.0 μW/cm^2/nm as measured by a BiliBlanket II Meter (as depicted in panel (C)).
Effect of light exposure on metalloporphyrin-treated newborn mice. […] Pups were either kept in the dark (controls) or exposed to fluorescent light composed of two cool white tubes (F20T12cW) and one blue (TL20W/52) tube for 3 hours (FIG. 2).

newborn rhesus monkeys = test: Hemolytic jaundice model, newborn rhesus monkeys treated with heat-damaged erythrocytes; type: in vivo, rhesus monkey
Source text: However, ZnPP has been troublesome to maintain in solution and is not orally absorbed, requiring parenteral administration.

heme oxygenase (HO) = test: HO activity inhibition in ZnBG-treated 3-day-old pups (FIG. 3); type: in vivo, mouse
[1] = after exposure to fluorescent light

| Molecule | chemical toxicity / phototoxicity, summary (3-day-old mouse pups) | LD50 (50% lethal dose), exposed to light (3-day-old mouse pups; IP, 3-day-old mouse pups) [µmol/kg] | LD50 (50% lethal dose), kept in the dark (3-day-old mouse pups; IP, 3-day-old mouse pups, kept in the dark) [µmol/kg] | tissue targeting of HO inhibition (newborn rhesus monkeys; 40 μmol/kg BW SC) | time to reduce carboxyhemoglobin and total bilirubin levels to baseline levels (newborn rhesus monkeys; 40 μmol/kg BW subcutaneously (SC)) [h] | inhibited HO activity (heme oxygenase (HO); 3.75 μmol ZnBG/kg BW) | doses retaining maximal HO inhibitory potency without photosensitizing effects (heme oxygenase (HO); FIG. 3) [μmol/kg BW] | lethality under blue LED light (3-day-old mouse pups; 30 μmol/kg BW, blue light-emitting diode (LED) light) | chemical toxicity, kept in the dark (3-day-old mouse pups; 30 μmol/kg, kept in the dark) | doses at which gross histologic skin changes developed (3-day-old mouse pups; 6 days after light exposure) [μmol/kg BW] | aspartate aminotransaminase (AST) levels (3-day-old mouse pups; [1]) | body weight after exposure to light (3-day-old mouse pups; [1]) | creatine kinase (CK-MB) levels (3-day-old mouse pups; [1]) | liver antioxidant capacities (3-day-old mouse pups; [1]) |
| --- | --- | --- | --- | --- | --- | --- | --- | --- | --- | --- | --- | --- | --- | --- |
| chromium mesoporphyrin [CrMP] | has a chemical toxicity, but no phototoxicity | 23.0 | 21.5 |  |  |  |  |  |  |  |  |  |  |  |
| C=CC1=C(C)c2cc3[n-]c(cc4nc(cc5[n-]c(cc1n2)c(C)c5C=C)C(C)=C4CCC(=O)O)c(CCC(=O)O)c3C.[Zn+2] [ZnPP, Zinc protoporphyrin] |  |  |  | targeted to the liver and spleen, without affecting the kidney or brain | ≤ 24 |  |  |  |  |  |  |  |  |  |
| zinc bis glycol porphyrin [ZnBG] | has no chemical toxicity, but a phototoxicity that is dependent on the light source | 19.5 |  |  |  | up to 75% | < 3.75 | no lethality was observed | did not show any chemical toxicity | > 7.5 | increases | significant weight loss | increases | decreases |
